Experimental data: US10765642B2, “Composition for preventing or treating muscle weakness-related diseases comprising sobrerol” (KOREA RESEARCH INSTITUTE OF BIOSCIENCE AND BIOTECHNOLOGY, priority 2015, dated 2020)

Columns and labels:
myogenin promoter = test: secreted MyoG luciferase assay system (myogenin promoter-secreted luciferase C2C12 myoblast line); type: cell-based; conditions: for luciferase activity increase as compared to the negative control: negative control (MeOH) set at 1
Source text: To evaluate the myoblast differentiation-promoting capability of sobrerol, a secreted MyoG luciferase assay system was used (FIG. 1). Specifically, the promoter portion of myogenin, which is a protein whose expression is increased upon myogenesis, was cloned into a secreted luciferase vector (pMetLuc2-Reporter Vector, Clontech), and then the vector was transfected into myoblasts C2C12 to prepare a myogenin promoter-secreted luciferase C2C12 myoblast line capable of stably expressing the luciferase enzyme The differentiation degree of the myoblasts into myotube cells can be quantitatively verified through the system in which the luciferase enzymes are secreted into the medium as the myogenin promoter is activated. To induce differentiation into muscle cells, DMEM (Dulbecco's Modified Eagle Medium, Invitrogen) medium supplemented with 2% horse serum was added to the C2C12 myoblasts. Herein, the expressed MEF2 and MyoD bind to the myogenin promoter, and then the luciferase enzymes are expressed and secreted out of the cell. Since the secreted luciferase enzymes are present in the medium, it can be measured to verify the degree of myogenesis. […] Specific experimental methods are as follows. On the first day, the C2C12 cells prepared in the Example 1-1 were inoculated into a 96-well plate containing DMEM medium supplemented with 10% bovine serum (FBS) at a concentration of 5×10^3 cells/well. In the morning of the second day, the medium of the well plate was replaced with DMEM medium (Growth medium, GM) supplemented with 10% bovine serum, which is the same component. In the afternoon, the medium (GM) was collected. Then, each well was treated with 100 μL of DMEM medium (differentiation medium 1, DM1) supplemented with 2% horse serum diluted with the sobrerol at each concentration. On the third day, the DM1 medium was collected, and the wells were treated with the same medium as in the second day (DM2). On the fourth day, the DM2 was collected. The media containing the luciferase secreted in the differentiation process of C2C12 cells were collected starting from the growth medium (GM) to the first day differentiation medium (DM1) and the second day differentiation medium (DM2) as described above, and 5 μL of coelenterazine as a substrate was added to 50 μL of the collected medium containing the luciferase enzyme, and the generated light was measured using a luminometer. The myogenesis-promoting capability of sobrerol at each concentration was measured through digitization by subtracting the measured values of DM0 from the measured values of DM1 and DM2. […] Ready-To-Glow™ Secreted Luciferase Reporter Systems (Clontech) was used as the luciferase assay kit, and the experiment was repeated three times.

MyoD = test: qRT-PCR of myogenic regulatory factor mRNA in C2C12 myoblasts: MyoD; type: cell-based; conditions: 0.1 μM sobrerol, 48 hours, growth medium
Method: (§1) Experiments were conducted to verify the effect of sobrerol on mRNA of myogenic regulatory factor. Specifically, the myoblasts (C2C12 myoblast cells) placed in the growth medium were treated with 0.1 μM sobrerol for 48 hours, and then subjected to qRT-PCR to measure the levels of MyoD, myogenin, and myosin heavy chain (MyHC).

myogenin = test: qRT-PCR of myogenic regulatory factor mRNA in C2C12 myoblasts: myogenin; type: cell-based; conditions: 0.1 μM sobrerol, 48 hours, growth medium
Method: as §1

[1] = system: myosin heavy chain (MyHC); test: qRT-PCR of myogenic regulatory factor mRNA in C2C12 myoblasts: myosin heavy chain; type: cell-based; conditions: 0.1 μM sobrerol, 48 hours, growth medium
Method: as §1

[2] = system: myosin heavy chain protein; test: immunofluorescence of myosin heavy chain protein in C2C12 myoblasts; type: cell-based; conditions: 0.1 μM sobrerol, 72 hours, differentiation medium
Method: Among the myogenic regulatory factors whose mRNA increased in the Example 2-1, experiments were conducted to verify the effect of sobrerol on the expression of myosin heavy chain. Specifically, the expression level of the myosin heavy chain protein was measured by immunofluorescence after treating the C2C12 myoblasts placed in the differentiation medium with 0.1 μM of sobrerol for 72 hours.

male C57BL/6 mice [3] = test: grip strength test after hind limb immobilization and remobilization; type: in vivo
Method: (§2) A total of 45 male C57BL/6 mice at 5 weeks of age (Daehan BioLink) were used in this animal experiment. After 2 weeks of adaptation to the surrounding environment, sobrerol was orally administered twice daily since 7 weeks of age. The control group was administered with 200 μL of water/20 g of mouse, and sobrerol was orally administered at a ratio of 1:2:4 [8.8 mg/200 μL/20 g (mouse), 17.6 mg/200 μL/20 g (mouse) and 35.3 mg/200 μL/20 g (mouse)] to verify dose dependency. At 8 weeks of age, both hind limbs of the mice were immobilized for 10 days using a surgical stapler (Autosuture Royal 35W stapler). (A novel hindlimb immobilization procedure for studying skeletal muscle atrophy and recovery in mouse. J Appl Physiol 106: 2049-2059, 2009). After removing the surgical stapler, they were allowed to move again for 3 days (remobilization), and then exercise capability improvement-verification tests (treadmill, and grip tests) were conducted.
(§3) The grip strength was measured using a grip strength measuring device for mouse (BIOSEB) (FIG. 6). Specifically, the front limbs of the mice of the Example 3-1 were placed on a wire net attached to an instrument panel capable of monitoring the strength, and the strength to hold the wire net was measured while the tail was gripped and pulled downward. The test was repeated three times in succession.

male C57BL/6 mice [4] = test: treadmill test after hind limb immobilization and remobilization; type: in vivo; conditions: immobilized mice
Method: as §2, with “conducted. The equipment shown in FIG. 8 was used for the treadmill test. The treadmill test was conducted as shown in FIG. 9 with reference to the treadmill protocol of used for the treadmill test (DOI 10.1016/j.cell.2006.11.013_Cell, Volume 127 Supplemental Data). One day prior to the treadmill test, the equipment was warmed up at a rate of 6 m/min for 10 minutes. At the starting point, electric stimulation was configured to flow so that the mice were forced to exercise. The next day, the test was started at a speed of 8 m/min and the speed was increased by 2 m/min every 20 minutes. One hour after the start of the treadmill test, the speed of 12 m/min was maintained, and the angle was increased by 5° and the electric stimulation was turned off. After 20 minutes, the angle of 5° was maintained but only the speed was increased by 2 m/min. Under the above condition, the running times of the mice were measured and recorded.” for “conducted.”

[5] = system: tibialis anterior (TA) muscle fibers; test: muscle fiber diameter (laminin immunofluorescence of tibialis anterior sections) after exercise restriction; type: in vivo, mice; conditions: oral
Method: as §2, with “conducted. In addition, after the exercise restriction in the Example 3-3, sections of the tibialis anterior (TA) were stained by immunofluorescence analysis using the antibodies against laminin, which is a protein existing at the periphery of muscle fibers, and the diameter of each muscle fiber was measured.” for “conducted.”

male C57BL/6 mice [6] = test: muscle weight measurement after exercise restriction; type: in vivo; conditions: oral
Method: as §2, with “conducted. As a result, the diameters of the muscle fibers of the mice orally administered with sobrerol were larger than those of the control group orally administered with distilled water (FIG. 11).” for “conducted.”

[7] = system: female C57BL/6 mice at the age of 21 months; test: grip strength test in aged mice; type: in vivo; conditions: oral for 5 weeks; for fatigue (grip strength weakening) on repeated grip strength measurement: sobrerol 17.6 or 35.3 mg/kg, clenbuterol 2 mg/kg
Method: as §3
(§4) Experiments were conducted to confirm whether sobrerol increases muscle strength in aged mice. Female C57BL/6 mice at the age of 21 months were adapted to the environment for 2 weeks and then orally administered with drugs for 5 weeks. Specifically, the negative control group was administered with water, the positive control group was administered with clenbuterol at a concentration of 2 mg/kg (mouse), and the sobrerol administration experimental group was orally administered with sobrerol at a concentration of 17.6 or 35.3 mg/kg (mouse). Then, locomotion tests (grip strength, treadmill) were conducted again to verify the effect.
The grip strength test is the same as the Example 3-2.

[8] = system: female C57BL/6 mice at the age of 21 months; test: treadmill test in aged mice; type: in vivo; conditions: 5 weeks
Method: One day prior to the treadmill test, the equipment was warmed up at a rate of 6 m/min for 10 minutes. At the starting point, electric stimulation was configured to flow so that the mice were forced to exercise. The next day, the test was started at a speed of 8 m/min and the speed was increased by 2 m/min every 20 minutes. One hour after the start of the treadmill test, the speed of 12 m/min was maintained, and the angle was increased by 5° and the electric stimulation was turned off. After 20 minutes, the angle of 5° was maintained but only the speed was increased by 2 m/min. Under the above condition, the running times of the mice were measured and recorded.
as §4
Tread mill test is the same as Example 3-3.

[9] = system: female C57BL/6 mice at the age of 21 months; test: muscle weight in aged mice; type: in vivo; conditions: 35.3 mg/kg
Method: as §4
(§5) In addition, changes in the muscle size and the muscle weight of the aged mice by sobrerol were verified by the method of the Example 3-3.
(§6) In addition, as in the Example 3-3, the diameter of the muscle fiber of the tibialis anterior (TA) section was measured by immunofluorescence analysis using laminin antibodies.

[10] = system: tibialis anterior (TA) muscle fibers; test: muscle fiber diameter (laminin immunofluorescence of tibialis anterior section) in aged mice; type: in vivo; conditions: aged mice fed with sobrerol
Method: In addition, after the exercise restriction in the Example 3-3, sections of the tibialis anterior (TA) were stained by immunofluorescence analysis using the antibodies against laminin, which is a protein existing at the periphery of muscle fibers, and the diameter of each muscle fiber was measured.
as §4, §5, §6

aged mice = test: treadmill test in aged mice after exercise restriction; type: in vivo; conditions: hind limbs immobilized 5 days then remobilization
Method: as §4
Both hind limbs of the mice were immobilized for 5 days using a surgical stapler (Autosuture Royal 35W stapler), and after removing the surgical stapler, they were allowed to move again (remobilization), and then exercise capability was evaluated by a treadmill test. As a result, the running time on the treadmill decreased after the exercise restriction as compared to that before the exercise restriction in the control group administered with distilled water, whereas the running time was not affected by exercise restriction in the experiment group administered with sobrerol (FIG. 17).

CC1=CCC(C(C)(C)O)CC1O (centres unmarked) [sobrerol]
luciferase activity increase as compared to the negative control (myogenin promoter; 0.01 nM sobrerol, C2C12): ≥ 1.2 fold
luciferase activity versus control group (myogenin promoter; 0.01 nM to 10 μM sobrerol, C2C12): higher luciferase activity than the control group
luciferase activity increase as compared to the negative control (myogenin promoter; 0.1 nM sobrerol, C2C12): about 1.5 fold
concentration with the greatest differentiation-promoting capability (myogenin promoter; C2C12 myogenin promoter luciferase): 0.1 nM
MyoD mRNA increase (MyoD): 2 fold
myogenin mRNA increase (myogenin): 4 fold
myosin heavy chain mRNA increase [1]: ≥ 25 fold
myosin heavy chain protein fluorescence intensity versus DMSO group [2]: stronger
grip strength with higher concentration of sobrerol administered (male C57BL/6 mice [3]; oral 8.8, 17.6, 35.3 mg/kg, immobilized mice): increasing tendency
grip strength measurement value (male C57BL/6 mice [3]; oral, twice daily, hind limbs immobilized 10 days, remobilization 3 days, negative control 3.5 N or less): ≥ 4.0 N
treadmill running time versus group administered with distilled water (male C57BL/6 mice [4]; 8.8 mg/kg oral, still shorter than non-immobilization group): slightly longer
treadmill running time versus non-immobilization group (male C57BL/6 mice [4]; 17.6 mg/kg oral): almost similar to the non-immobilization group
treadmill running time versus non-immobilization group (male C57BL/6 mice [4]; 35.3 mg/kg oral): longer as compared to the non-immobilization group
diameters of the muscle fibers (tibialis anterior) versus distilled water control [5]: larger
weight of extensor digitorum longus (EDL) (male C57BL/6 mice [6]): significantly increased
weight of gastrocnemius (GA) (male C57BL/6 mice [6]): significantly increased
weight of soleus (male C57BL/6 mice [6]): significantly increased
weight of tibialis anterior (TA) (male C57BL/6 mice [6]): significantly increased
first measured grip strength values, difference between groups [7]: no differences
fatigue (grip strength weakening) on repeated grip strength measurement [7]: did not show the increase in fatigue
treadmill running time versus negative control group ([8]; 17.6 mg/kg oral): significantly longer
treadmill running time versus negative control group ([8]; 35.3 mg/kg oral): longer running time than the negative control group
weights of the gastrocnemius (GA) [9]: increased to a significant level
diameters of the muscle fibers (tibialis anterior section) [10]: further increased
treadmill running time after exercise restriction versus before (aged mice): not affected

CC(C)(C)NCC(O)c1cc(Cl)c(N)c(Cl)c1 (centres unmarked) [clenbuterol]
fatigue (grip strength weakening) on repeated grip strength measurement [7]: did not show the increase in fatigue
